Laboratory results from patent US20070099900A1, “Methods of modulating neurotrophin-mediated activity” (PainCeptor Pharma Corporation, priority 2005, published 2007).

What was measured:
PC12 (TrkA & p75) = assay: 125I-NGF binding displacement in PC12 cells; design: species or system rat; conditions: for NGF binding displacement, dose-response curve: PC12 cells expressing TrkA and p75
Protocol: The method for acquiring the PC12 data described in Table 1 is described herein in Example 1. Each experiment was done at least once with an n value of 4 for each data point. (n/a=not acquired)
All cells were incubated at 37° C. in 5% CO2. PC12 cells were maintained in RPMI-1640 medium supplemented with 10% fetal bovine serum (FBS). A875 human melanoma cells were maintained in DMEM with 10% FBS. HEK 293 cells were stably transfected with human TrkA plasmid (see below) and maintained in DMEM with 10% FBS and G418 (600 μg/mL) for selection.
NGF binding was evaluated using methods familiar to those who are skilled in the art. Briefly, cells expressing one or both NGF receptors (PC12: TrkA+p75; A875: p75 alone; HEK_TrkA: TrkA alone) were harvested by replacing the medium with calcium-magnesium free balanced salt (Grey's) solution and incubating at 37° C. for 15 min. For NGF binding, cells were resuspended at a concentration of 2×10^6 cells/mL in HEPES-Krebs-Ringer (HKR) buffer (10 mM HEPES; 125 mM NaCl; 4.8 mM KCl; 1.3 mM CaCl2; 1.2 mM MgSO4; 1.2 mM KH2PO4; 1 mg/ml BSA; 1 mg/ml glucose; pH 7.4) and exposed to ^125I-NGF (˜0.1 nM) in the presence or absence of varying concentrations of the compound. Non-specific binding was determined for reference by incubating ^125I-NGF with an excess of non-radioactive NGF in the abence of compound. Following a two-hour incubation period at 4° C., ^125I-NGF bound to the cells was quantified in a gamma radiation counter following separation from unbound NGF by filtration or centrifugation through glycerol (10% in HKR). Inhibition of binding was calculated as a percent of the specific binding (calculated as the differential between ^125I-NGF binding in the absence and presence of an excess of non-radioactive NGF without compound). Dose-response inhibition curves were typically generated with seven concentrations of a given compound, with three replicates for each concentration. For most compounds, multiple dose-response curves were generated.
The IC50 data shown in Table 1 were acquired using the procedure described herein using PC12 cells.

[1] = Writhing Test (acetic acid abdominal contraction test); type: in vivo; conditions: mice
Protocol: The acetic acid abdominal contraction test (Martinez et al., Pain 1999; 81: 179) was used to determine the efficacy of different compounds in a model of acute visceral chemical nociception. […] Compound or vehicle was administered (i.p. or s.c.) 15-45 minutes prior to the acetic acid injection. Each episode of writhing is characterized by a lengthwise stretching of the torso with a concomitant arching of the back.
Statistical analysis was performed using Prism™ 4.01 software package (GraphPad, San Diego, Calif., USA). The difference in response levels between treatment groups and control vehicle group was analyzed using an ANOVA followed by Bonferroni's method for post-hoc pair-wise comparisons. A p value <0.05 was considered to be significant
Animals were treated with vehicle (VEH) or Compound 91 (5 mg/kg i.p.; [CMP 1] and 50 mg/kg i.p. [CMP 2])) 10-20 minutes before the intraperitoneal injection of acetic acid, as described in this example.

[2] = tested on: NGF-induced Erk 1/2 phosphorylation in PC12 cells; assay: NGF-induced Erk 1/2 phosphorylation, Western blot; type: cell-based, rat; conditions: NGF 5 ng/mL
Protocol: This assay is useful for establishing that the compounds of the invention are functional NGF antagonists, not receptor agonists (an agonist could conceivably block NGF binding but actually activate the receptor). Erk 1/2 is a kinase activated down stream of TrkA and is a well studied member of the NGF-induced signal transduction cascade.
PC12 cells expressing TrkA and p75 were acutely exposed to 5 ng/mL NGF (15 min; 37° C.; 5% CO2) that was pre-incubated (30 min; room temperature) with or without the compounds. Cells were lysed in Laemmli sample buffer (for SDS-PAGE) or a lysis buffer containing Triton X-100 (for ELISA). Following SDS-PAGE, proteins were electroblotted onto nitrocellulose and immunoprobed for phosphorylated Erk 1 and 2. Blocking and primary antibody incubations of immunoblots were performed in Tris-buffered saline-Tween (10 mM Tris, pH 8.0, 150 mM NaCl, and 0.2% Tween 20) supplemented with 5% (w/v) bovine serum albumin (BSA); secondary antibody incubations were performed in 5% (w/v) dried skim milk powder. Immunoreactive bands were detected by chemiluminescence.

O=C(O)c1ccc(Cl)c(N2C(=O)c3ccc4c5c(ccc(c35)C2=O)C(=O)N(c2cc(C(=O)O)ccc2Cl)C4=O)c1 [Compound 18, 3-[7-(1-chloro-4-carboxy-phenyl)-1,3,6,8-tetraoxo-3,6,7,8-tetrahydro-1H-benzo[lmn][3,8]phenanthrolin-2-yl]-4-chloro-benzoic acid]
NGF binding displacement, dose-response curve (PC12 (TrkA & p75)): effectively blocks NGF binding
PC12 (TrkA & p75) Single point (% max binding) Mean (PC12 (TrkA & p75); compound concentration 50 μM): *** (0 > *** > 30)

O=C1c2ccc3c4c(ccc(c24)C(=O)N1c1ccc(S(=O)(=O)O)cc1)C(=O)N(c1ccc(S(=O)(=O)O)cc1)C3=O [Compound 54, 4-(1,3,6,8-Tetraoxo-7-(4-benzenesulfonic acid)-3,6,7,8-tetrahydro-1H-benzo[lmn][3,8]phenanthrolin-2-yl)-benzenesulfonic acid]
PC12 (TrkA & p75) Single point (% max binding) Mean (PC12 (TrkA & p75); compound concentration 50 μM): *** (0 > *** > 30)

O=C(O)c1ccc(Cl)c(N2C(=O)c3ccc4c5c(ccc(c35)C2=O)C(=O)OC4=O)c1 [Compound 58, 4-Chloro-3-(1,3,6,8-tetraoxo-1,3,6,8-tetrahydro-2-oxa-7-aza-pyren-7-yl)-benzoic acid]
PC12 (TrkA & p75) Single point (% max binding) Mean (PC12 (TrkA & p75); compound concentration 50 μM): *** (0 > *** > 30)

O=C(O)CCCN1C(=O)c2ccc3c4c(ccc(c24)C1=O)C(=O)N(c1cc(C(=O)O)ccc1Cl)C3=O [Compound 59, 3-[7-(3-Carboxy-propyl)-1,3,6,8-tetraoxo-3,6,7,8-tetrahydro-1H-benzo[lmn][3,8]phenanthrolin-2-yl]-4-chloro-benzoic acid]
PC12 (TrkA & p75) Single point (% max binding) Mean (PC12 (TrkA & p75); compound concentration 50 μM): *** (0 > *** > 30)

O=C([O-])c1ccc2nc3c4ccc5c6c(ccc(c(=O)n3c2c1)c46)c(=O)n1c2cc(C(=O)[O-])ccc2nc51.[Na+].[Na+] [Compound 91]
Antinociceptive effect in the Writhing Test ([1]; 5 and 50 mg/kg i.p., p<0.01 vs vehicle): significant antinociceptive effects
Chemically-induced abdominal contractions (number in 30 minutes) ([1]; i.p., n=6, vehicle 58±4, dose of the value (5 or 50 mg/kg) not stated): 16±9
NGF binding displacement, dose-response curve (PC12 (TrkA & p75)): effectively blocks NGF binding
Inhibition of NGF-induced Erk 1/2 phosphorylation [2]: inhibits NGF-induced Erk 1/2 phosphorylation

O=c1c2ccc3c4c(ccc(c24)c2nc4ccccc4n12)c(=O)n1c2ccccc2nc31.[K+] [Compound 92, 1,3,6-trioxo-1,2,3,6-tetrahydro-benzo[lmn]benzo[4,5]imidazo[2,1-b][3,8]diphenanthroline potassium salt]
PC12 (TrkA & p75) Single point (% max binding) Mean (PC12 (TrkA & p75); compound concentration 50 μM): * (* > 50)

O=C(O)c1cccc(N2C(=O)c3ccc4c(=O)n5c6cc(C(=O)O)ccc6nc5c5ccc(c3c45)C2=O)c1 [Compound 93, 2-(3-Carboxy-phenyl)-1,3,6-trioxo-1,2,3,6-tetrahydro-benzo[lmn]benzo[4,5]imidazo[2,1-b][3,8]phenanthroline-9-carboxylic acid]
PC12 (TrkA & p75) Single point (% max binding) Mean (PC12 (TrkA & p75); compound concentration 50 μM): ** (30 > ** > 50)

O=C(O)CCCN1C(=O)c2ccc3c4c(ccc(c24)C1=O)C(=O)OC3=O [Compound 94]
PC12 (TrkA & p75) Single point (% max binding) Mean (PC12 (TrkA & p75); compound concentration 25 μM): *** (0 > *** > 30)

O=C(O)CCCN1C(=O)c2ccc3c(=O)n4c5cc(C(=O)O)ccc5nc4c4ccc(c2c34)C1=O [Compound 95, 2-(3-Carboxy-propyl)-1,3,6-trioxo-1,2,3,6-tetrahydro-benzo[lmn]benzo[4,5]imidazo[2,1-b][3,8]phenanthroline-9-carboxylic acid]
PC12 (TrkA & p75) Single point (% max binding) Mean (PC12 (TrkA & p75); compound concentration 25 μM): * (* > 50)

O=C(O)c1ccc(Cl)c(N2C(=O)c3ccc4c(=O)n5c6ccccc6nc5c5ccc(c3c45)C2=O)c1 [Compound 98, 2-(5-Carboxy-2-chloro-phenyl)-1,3,6-trioxo-1,2,3,6-tetrahydro-benzo[lmn]benzo[4,5]imidazo[2,1-b][3,8]phenanthroline-9]
PC12 (TrkA & p75) Single point (% max binding) Mean (PC12 (TrkA & p75); compound concentration 25 μM): *** (0 > *** > 30)

O=C(O)c1ccc(Cl)c(N2C(=O)c3ccc4c(=O)n5c6cc(Cl)ccc6nc5c5ccc(c3c45)C2=O)c1 [Compound 99, 2-(5-Carboxy-2-chloro-phenyl)-1,3,6-trioxo-1,2,3,6-tetrahydro-9-chloro-benzo[lmn]benzo[4,5]imidazo[2,1-b][3,8]phenanthroline]
PC12 (TrkA & p75) Single point (% max binding) Mean (PC12 (TrkA & p75); compound concentration 10 μM): *** (0 > *** > 30)

O=C(O)c1ccc(Cl)c(N2C(=O)c3ccc4c(=O)n5c6cc([N+](=O)[O-])ccc6nc5c5ccc(c3c45)C2=O)c1 [Compound 100, 2-(5-Carboxy-2-chloro-phenyl)-1,3,6-trioxo-1,2,3,6-tetrahydro-9-nitro-benzo[lmn]benzo[4,5]imidazo[2,1-b][3,8]phenanthroline]
PC12 (TrkA & p75) Single point (% max binding) Mean (PC12 (TrkA & p75); compound concentration 10 μM): *** (0 > *** > 30)

COc1ccc2nc3c4ccc5c6c(ccc(c(=O)n3c2c1)c64)C(=O)N(c1cc(C(=O)O)ccc1Cl)C5=O [Compound 101, 2-(5-Carboxy-2-chloro-phenyl)-1,3,6-trioxo-1,2,3,6-tetrahydro-9-methoxy-benzo[lmn]benzo[4,5]imidazo[2,1-b][3,8]phenanthroline]
PC12 (TrkA & p75) Single point (% max binding) Mean (PC12 (TrkA & p75); compound concentration 10 μM): ** (30 > ** > 50)

COC(=O)c1ccc2nc3c4ccc5c6c(ccc(c(=O)n3c2c1)c64)C(=O)N(c1cc(C(=O)O)ccc1Cl)C5=O [Compound 102, Methyl-2-(5-Carboxy-2-chloro-phenyl)-1,3,6-trioxo-1,2,3,6-tetrahydro-benzo[lmn]benzo[4,5]imidazo[2,1-b][3,8]phenanthroline-9-carboxylic acid ester]
PC12 (TrkA & p75) Single point (% max binding) Mean (PC12 (TrkA & p75); compound concentration 10 μM): * (* > 50)
